Results published in patent US6376426B1, “Herbicidal 3-(heterocycl-1-yl)-uracils” (BASF Aktiengesellschaft, priority 1999, dated 2002).

How the values were obtained:
Format in all cases: in vivo
Triticum aestivum [1] = experiment: Pre-emergence herbicidal test, TRZAW; details: 21 days after spraying
Procedure: (§1) To evaluate their herbicidal activity, compounds according to the invention are tested using a representative range of plants:
(§2) The pre-emergence tests involve spraying a liquid formulation of the compound onto the soil in which the seeds of the plant species mentioned above has recently been sown.
(§3) The soil used in the tests is a prepared horticultural loam. The formulations used in the tests are prepared from solutions of the test compounds in acetone containing 0.4% by weight of an alkylphenol/ethylene oxide condensate available under the trade mark TRITON X-155. […] In these tests untreated sown soil are used as controls.
(§4) The herbicidal effects of the test compounds are assessed visually twenty-one days after spraying the foliage and the soil and are recorded on a 0-9 scale. A rating 0 indicates growth as untreated control, a rating 9 indicates death. An increase of 1 unit on the linear scale approximates to a 10% increase in the level of effect.

Hordeum vulgare [2] = experiment: Pre-emergence herbicidal test, HORVW; details: 21 days after spraying
Procedure: as §1, §2, §3, §4

Zea mays [3] = experiment: Pre-emergence herbicidal test, ZEAMX; details: PRE, 21 days after spraying
Procedure: as §1, §2, §3, §4

Glycine max [4] = experiment: Pre-emergence herbicidal test, GLXMA; details: PRE, 21 days after spraying
Procedure: as §1, §2, §3, §4

Setaria viridis [5] = experiment: Pre-emergence herbicidal test, SETVI; design: key to herbicidal effect (0-9 scale) SETVI / herbicidal rating SETVI: A rating 0 indicates growth as untreated control; a rating 9 indicates death; details: PRE, 21 days after spraying
Procedure: as §1, §2, §3, §4

Echinochloa crus-galli [6] = experiment: Pre-emergence herbicidal test, ECHCG; details: 21 days after spraying
Procedure: as §1, §2, §3, §4

Ipomoea hederacea [7] = experiment: Pre-emergence herbicidal test, IPOHE; details: 21 days after spraying
Procedure: as §1, §2, §3, §4

Galium aparine [8] = experiment: Pre-emergence herbicidal test, GALAP; design: key to herbicidal effect (0-9 scale) GALAP / herbicidal rating GALAP: A rating 0 indicates growth as untreated control; a rating 9 indicates death; details: PRE, 21 days after spraying
Procedure: as §1, §2, §3, §4

Abutilon theophrasti [9] = experiment: Pre-emergence herbicidal test, ABUTH; design: key to herbicidal effect (0-9 scale) ABUTH / herbicidal rating ABUTH: A rating 0 indicates growth as untreated control; a rating 9 indicates death; details: PRE, 21 days after spraying
Procedure: as §1, §2, §3, §4

Stellaria media [10] = experiment: Pre-emergence herbicidal test, STEME; design: key to herbicidal effect (0-9 scale) STEME / herbicidal rating STEME: A rating 0 indicates growth as untreated control; a rating 9 indicates death; details: PRE, 21 days after spraying
Procedure: as §1, §2, §3, §4

Matricaria inodora [11] = experiment: Pre-emergence herbicidal test, MATIN; design: key to herbicidal effect (0-9 scale) MATIN / herbicidal rating MATIN: A rating 0 indicates growth as untreated control; a rating 9 indicates death; details: PRE, 21 days after spraying
Procedure: as §1, §2, §3, §4

Triticum aestivum [12] = experiment: Post-emergence herbicidal test, TRZAW; details: POST, 21 days after spraying
Procedure: as §1
(§5) […] After spraying, the plants are placed on greenhouse benches and are cared for in the usual manner, commensurate with conventional greenhouse practices.
as §4

Hordeum vulgare [13] = experiment: Post-emergence herbicidal test, HORVW; details: 21 days after spraying
Procedure: as §1
These acetone solutions are diluted with water and the resulting formulations applied at dosage levels equivalent to about 1000, 800, 400, 250 or 100 g/ha per hectare of test compound per pot. After spraying, the plants are placed on greenhouse benches and are cared for in the usual manner, commensurate with conventional greenhouse practices.
as §4

Zea mays [14] = experiment: Post-emergence herbicidal test, ZEAMX; details: 21 days after spraying
Procedure: as §1, §5, §4

Glycine max [15] = experiment: Post-emergence herbicidal test, GLXMA; details: 21 days after spraying
Procedure: as §1, §5, §4

Setaria viridis [16] = experiment: Post-emergence herbicidal test, SETVI; design: key to herbicidal effect (0-9 scale) SETVI / herbicidal rating SETVI: A rating 0 indicates growth as untreated control; a rating 9 indicates death; details: POST, 21 days after spraying
Procedure: as §1, §5, §4

Echinochloa crus-galli [17] = experiment: Post-emergence herbicidal test, ECHCG; design: key: A rating 0 indicates growth as untreated control; a rating 9 indicates death; details: 21 days after spraying
Procedure: as §1, §5, §4

Alopecurus myosuroides = experiment: Post-emergence herbicidal test, ALOMY; design: key: A rating 0 indicates growth as untreated control; a rating 9 indicates death; details: 21 days after spraying
Procedure: as §1, §5, §4

Ipomoea hederacea [18] = experiment: Post-emergence herbicidal test, IPOHE; design: key to herbicidal effect (0-9 scale) IPOHE / herbicidal rating IPOHE: A rating 0 indicates growth as untreated control; a rating 9 indicates death; details: POST, 21 days after spraying
Procedure: as §1, §5, §4

Galium aparine [19] = experiment: Post-emergence herbicidal test, GALAP; design: key to herbicidal effect (0-9 scale) GALAP / herbicidal rating GALAP: A rating 0 indicates growth as untreated control; a rating 9 indicates death; details: POST, 21 days after spraying
Procedure: as §1, §5, §4

Abutilon theophrasti [20] = experiment: Post-emergence herbicidal test, ABUTH; design: key to herbicidal effect (0-9 scale) ABUTH / herbicidal rating ABUTH: A rating 0 indicates growth as untreated control; a rating 9 indicates death; details: POST, 21 days after spraying
Procedure: as §1, §5, §4

Stellaria media [21] = experiment: Post-emergence herbicidal test, STEME; design: key to herbicidal effect (0-9 scale) STEME / herbicidal rating STEME: A rating 0 indicates growth as untreated control; a rating 9 indicates death; details: POST, 21 days after spraying
Procedure: as §1, §5, §4

Matricaria inodora [22] = experiment: Post-emergence herbicidal test, MATIN; design: key to herbicidal effect (0-9 scale) MATIN / herbicidal rating MATIN: A rating 0 indicates growth as untreated control; a rating 9 indicates death; details: POST, 21 days after spraying
Procedure: as §1, §5, §4

Question: With `Cn1c(C(F)(F)F)cc(=O)n(-n2ccc3cc([N+](=O)[O-])ccc32)c1=O` [Example 4] as the compound, how does the “herbicidal effect (0-9 scale) TRZAW” value (Triticum aestivum [1]; 400 g/ha) read?
Answer: 3

Question: What about the “herbicidal effect (0-9 scale) TRZAW” value (Triticum aestivum [1]; 800 g/ha) of the same compound?
Answer: 6

Question: What about the “herbicidal effect (0-9 scale) HORVW” value (Hordeum vulgare [2]; 400 g/ha) of the same compound?
Answer: 5

Question: And the “herbicidal effect (0-9 scale) HORVW” value (Hordeum vulgare [2]; 800 g/ha)?
Answer: 7

Question: What about the “herbicidal effect (0-9 scale) ZEAMX” value (Zea mays [3]; 400 g/ha) of the same compound?
Answer: 6

Question: What about the “herbicidal effect (0-9 scale) ZEAMX” value (Zea mays [3]; 800 g/ha) of the same compound?
Answer: 8

Question: What about the “herbicidal effect (0-9 scale) GLXMA” value (Glycine max [4]; 400 g/ha) of the same compound?
Answer: 3

Question: And the “herbicidal effect (0-9 scale) GLXMA” value (Glycine max [4]; 800 g/ha)?
Answer: 3

Question: What about the “herbicidal effect (0-9 scale) SETVI” value (Setaria viridis [5]; 400 g/ha) of the same compound?
Answer: 9

Question: What about the “herbicidal effect (0-9 scale) SETVI” value (Setaria viridis [5]; 800 g/ha) of the same compound?
Answer: 9

Question: And the “herbicidal effect (0-9 scale) ECHCG” value (Echinochloa crus-galli [6]; 400 g/ha)?
Answer: 8

Question: And the “herbicidal effect (0-9 scale) ECHCG” value (Echinochloa crus-galli [6]; 800 g/ha)?
Answer: 8

Question: What about the “herbicidal effect (0-9 scale) IPOHE” value (Ipomoea hederacea [7]; 400 g/ha) of the same compound?
Answer: 7

Question: And the “herbicidal effect (0-9 scale) IPOHE” value (Ipomoea hederacea [7]; 800 g/ha)?
Answer: 8

Question: And the “herbicidal effect (0-9 scale) GALAP” value (Galium aparine [8]; 400 g/ha)?
Answer: 9

Question: What about the “herbicidal effect (0-9 scale) GALAP” value (Galium aparine [8]; 800 g/ha) of the same compound?
Answer: 9

Question: What about the “herbicidal effect (0-9 scale) ABUTH” value (Abutilon theophrasti [9]; 400 g/ha) of the same compound?
Answer: 9

Question: What about the “herbicidal effect (0-9 scale) ABUTH” value (Abutilon theophrasti [9]; 800 g/ha) of the same compound?
Answer: 9

Question: What about the “herbicidal effect (0-9 scale) STEME” value (Stellaria media [10]; 400 g/ha) of the same compound?
Answer: 9

Question: And the “herbicidal effect (0-9 scale) STEME” value (Stellaria media [10]; 800 g/ha)?
Answer: 9

Question: What about the “herbicidal effect (0-9 scale) MATIN” value (Matricaria inodora [11]; 400 g/ha) of the same compound?
Answer: 9

Question: And the “herbicidal effect (0-9 scale) MATIN” value (Matricaria inodora [11]; 800 g/ha)?
Answer: 9

Question: What about the “herbicidal effect (0-9 scale) TRZAW” value (Triticum aestivum [12]; 400 g/ha) of the same compound?
Answer: 4

Question: What about the “herbicidal effect (0-9 scale) TRZAW” value (Triticum aestivum [12]; 800 g/ha) of the same compound?
Answer: 4

Question: And the “herbicidal effect (0-9 scale) HORVW” value (Hordeum vulgare [13]; 400 g/ha)?
Answer: 5

Question: What about the “herbicidal effect (0-9 scale) HORVW” value (Hordeum vulgare [13]; 800 g/ha) of the same compound?
Answer: 6

Question: And the “herbicidal effect (0-9 scale) ZEAMX” value (Zea mays [14]; 400 g/ha)?
Answer: 6

Question: And the “herbicidal effect (0-9 scale) ZEAMX” value (Zea mays [14]; 800 g/ha)?
Answer: 8

Question: What about the “herbicidal effect (0-9 scale) GLXMA” value (Glycine max [15]; 400 g/ha) of the same compound?
Answer: 8

Question: What about the “herbicidal effect (0-9 scale) GLXMA” value (Glycine max [15]; 800 g/ha) of the same compound?
Answer: 8

Question: What about the “herbicidal effect (0-9 scale) SETVI” value (Setaria viridis [16]; 400 g/ha) of the same compound?
Answer: 9

Question: What about the “herbicidal effect (0-9 scale) SETVI” value (Setaria viridis [16]; 800 g/ha) of the same compound?
Answer: 9

Question: What about the “herbicidal effect (0-9 scale) ECHCG” value (Echinochloa crus-galli [17]; 400 g/ha) of the same compound?
Answer: 8

Question: And the “herbicidal effect (0-9 scale) ECHCG” value (Echinochloa crus-galli [17]; 800 g/ha)?
Answer: 9

Question: And the “herbicidal effect (0-9 scale) ALOMY” value (Alopecurus myosuroides; 400 g/ha)?
Answer: 8

Question: What about the “herbicidal effect (0-9 scale) ALOMY” value (Alopecurus myosuroides; 800 g/ha) of the same compound?
Answer: 9

Question: What about the “herbicidal effect (0-9 scale) IPOHE” value (Ipomoea hederacea [18]; 400 g/ha) of the same compound?
Answer: 9

Question: What about the “herbicidal effect (0-9 scale) IPOHE” value (Ipomoea hederacea [18]; 800 g/ha) of the same compound?
Answer: 9

Question: What about the “herbicidal effect (0-9 scale) GALAP” value (Galium aparine [19]; 400 g/ha) of the same compound?
Answer: 8

Question: What about the “herbicidal effect (0-9 scale) GALAP” value (Galium aparine [19]; 800 g/ha) of the same compound?
Answer: 9

Question: And the “herbicidal effect (0-9 scale) ABUTH” value (Abutilon theophrasti [20]; 400 g/ha)?
Answer: 9

Question: And the “herbicidal effect (0-9 scale) ABUTH” value (Abutilon theophrasti [20]; 800 g/ha)?
Answer: 9

Question: What about the “herbicidal effect (0-9 scale) STEME” value (Stellaria media [21]; 400 g/ha) of the same compound?
Answer: 9

Question: And the “herbicidal effect (0-9 scale) STEME” value (Stellaria media [21]; 800 g/ha)?
Answer: 9

Question: What about the “herbicidal effect (0-9 scale) MATIN” value (Matricaria inodora [22]; 400 g/ha) of the same compound?
Answer: 9

Question: What about the “herbicidal effect (0-9 scale) MATIN” value (Matricaria inodora [22]; 800 g/ha) of the same compound?
Answer: 9
